Patent US20250019370A1, “L-LYSINE SALT OF 4-CHLORO-5-[4-(2,6-DICHLOROPHENYL)SULFONYLPIPERAZIN-1-YL]-1-BENZOFURAN-2-CARBOXYLIC ACID AND VARIOUS FORMS THEREOF” (ENYO PHARMA, priority 2023, published 2025)

Experiments:
[1] = Dynamic Vapor Sorption (DVS) analysis (gas water sorption); assay type: physicochemical; conditions: for water uptake (DVS): 25° C./60% RH; for hygroscopicity (DVS): hygroscopic above 2% mass gain at 25° C./60% RH
Procedure: The dynamic vapor sorption (DVS) analysis (gas water sorption) was performed on a DVS-Intrinsic incubator (SMS Ltd), equipped with DVS-Intrinsic Control Software 1.0. The sample, placed in an aluminium basket holder, was submitted to a full-cycle analysis (sorption followed by desorption cycle) under the following conditions:
The sample was first pre-dried under a stream of dry air until a stabilized sample mass was observed. Then, the relative humidity was increased by 5% increments. At each step, the sample mass was allowed to increase until equilibrium is reached (according to a given dm/dt target), and then a new relative humidity rise occurred. Relative humidity was ramped up to 95%. After equilibration at this point, desorption began in a similar stepwise manner, with sample mass decrease again allowed to stabilize after each incremental humidity decrease.
With both segments of the above-described method, the sample mass recording allowed describing of the whole vapor water sorption/desorption behaviour versus relative humidity.

[2] = Pharmacokinetic study Experiment #3, oral administration in rats; assay type: in vivo, rat; conditions: 10 mg EqEYP001/Kg
Procedure: In a third study (Experiment #3), EYP001 and EYP001 L-lysine salt Form I in aqueous formulations (0.5% CMC, 0.25% Tween 80, water) were orally administrated at a dose of 10 mg EqEYP001/Kg in 6-8 male rats for each compound. Blood samples were taken at 0.25 h, 0.5 h, 1 h, 2 h, 4 h, 6 h, 8 h, 12 h, and 24 h after oral administration.

[3] = Solubility kinetics in pH 4.5 acetate buffer; assay type: physicochemical; conditions: for Soluble fraction: 37 ° C., listed as EYP001 L-Lysine salt (Form I)
[4] = Pharmacokinetic study Experiment #1, oral administration in rats; assay type: in vivo, rat; conditions: 50 mg EqEYP001/Kg
Procedure: In a first study (Experiment #1), EYP001, EYP001 Meglumine salt, and EYP001 L-lysine salt Form I in aqueous formulations (0.5% CMC, 0.25% Tween 80, water) were orally administrated at a dose of 50 mg EqEYP001/Kg in 3 male rats for each compound. Blood samples were taken at 0.25 h, 0.5 h, 1 h, 2 h, 4 h, 6 h, 8 h, 12 h, and 24 h after oral administration.

[5] = Thermogravimetric analysis (TGA), mass losses upon heating; assay type: physicochemical; conditions: listed as EYP001 L-lysine salt (sample A)
Procedure: Thermogravimetric analysis was performed on a TA Instruments TGA Hi-Res 2950 apparatus equipped with an evolved gas analysis furnace. A sample was placed in an opened aluminium basket and analysed according to the following conditions: […]

[6] = Solubility kinetics in FaSSIF medium; assay type: physicochemical
Procedure: The solubility kinetics of the salt forms as well as the native EYP001 free acid form were determined in FaSSIF and FeSSIF media, and in a pH 4.5 acetate buffer as detailed below: The samples were prepared by adding an excess of each tested bulk (salt or native EYP001) to a given volume of test medium. The suspension was stirred by orbital stirring over 1 hour (in both pH 4.5 acetate buffer and FeSSIF medium) or 24 hours ([…] medium) at 37° C., protected from light. In FaSSIF medium, the soluble concentration was assessed after 24 hours of stirring. […] At each time point, the “supernatant” was isolated and diluted in a solvent mixture allowing its injection into the chromatographic system. The concentration in solution in the test medium was determined by HPLC with external standardization.

[7] = listed as EYP001 L-lysine salt (Sample A)
[8] = listed as EYP001 L-lysine salt (form I)
[9] = male rats, versus EYP001 free acid

NCCCC[C@H](N)C(=O)O.O=C(O)c1cc2c(Cl)c(N3CCN(S(=O)(=O)c4c(Cl)cccc4Cl)CC3)ccc2o1 [EYP001 L-lysine salt Form I, L-lysine salt of 4-chloro-5-[4-(2,6-dichlorophenyl)sulfonylpiperazin-1-yl]-1-benzofuran-2-carboxylic acid]
mass loss during preliminary drying phase ([1]; 25° C./0% RH before sorption, listed as EYP001 L-lysine salt (Sample A)): no significant mass loss | water uptake (DVS) [1, 7]: 0.4% | water uptake (DVS) [1, 8]: 0.4% | water uptake upon sorption (DVS) ([1]; 25° C./95% RH, listed as EYP001 L-lysine salt (Sample A)): 0.8% | final sample mass after full sorption-desorption cycle versus initial mass ([1]; back to 0% RH): roughly the same as the initial one | hygroscopicity (DVS) [1, 7]: non-hygroscopic | hygroscopicity (DVS) [1, 8]: non-hygroscopic | Mean AUC0-24 ([2]; male rats, aqueous formulation): 7311 ng·h/mL | Mean Cmax ([2]; male rats, aqueous formulation): 2947 ng/mL | % increase/EYP001 (AUC0-24) [2, 9]: +84% | % increase/EYP001 (Cmax) [2, 9]: +118% | exposure and C max compared to EYP001 free acid ([2]; rat): superiority | variability of the C max (CV %) compared to EYP001 free acid ([2]; rat): strongly reduced | variability of the exposure (CV %) compared to EYP001 free acid ([2]; rat): strongly reduced | solubility compared to EYP001 free acid, Benethamine, Zinc, Benzathine and Ethylene diamine salts ([3]; 37° C.): much higher solubility | Soluble fraction ([3]; after 0.5 h): 0.010 mg/mL of EYP001 | Soluble fraction ([3]; after 1 h): 0.006 mg/mL of EYP001 | Mean AUC0-24 ([4]; male rats, aqueous formulation): 60011 ng·h/mL | Mean Cmax ([4]; male rats, aqueous formulation): 8827 ng/mL | % increase/EYP001 (AUC0-24) [4, 9]: +15% | % increase/EYP001 (Cmax) [4, 9]: +26% | C max compared to EYP001 free acid and EYP001 Meglumine salt ([4]; rat): higher C max | exposure (AUC0-24) compared to EYP001 free acid and EYP001 Meglumine salt ([4]; rat): superior exposure | onset temperature of thermal decomposition (TGA) ([5]; heater ramp 10 ° C./min, nitrogen): 254 °C | mass loss before the beginning of thermal decomposition (TGA) ([5]; upon heating): no mass loss | solubility compared to EYP001 free acid, Piperazine, Morpholine, Imidazole, Benethamine, Zinc and Cyclohexylamine salts ([6]; 37° C.): higher solubility | Soluble fraction ([6]; 37° C., after 24 h): 0.31 mg/mL of EYP001 | pH ([6]; pH given with the soluble fraction, after 24 h): 6.6
